This note sets out measurements from patent publication US6642276B2, “Controlled release macrolide pharmaceutical formulations” (M/S Ind-Swift Limited, priority 2001, dated 2003).

The structures appear in SMILES notation.

Holding throughout (type): physicochemical
A short description of data set [1]: Stability studies of bulk drug, physical mixture and citrate salt on storage.
A short description of data set [2]: pH solubility studies (mg of drug dissolved per ml of buffer).
The nature of data set [3]: pH of 0.2% suspension in water: methanol (19:1).

Turning to `CC[C@H]1OC(=O)[C@H](C)[C@@H](O[C@H]2C[C@@](C)(OC)[C@@H](O)[C@H](C)O2)[C@H](C)[C@@H](O[C@@H]2O[C@H](C)C[C@H](N(C)C)[C@H]2O)[C@](C)(OC)C[C@@H](C)C(=O)[C@H](C)[C@@H](O)[C@]1(C)O` [Clarithromycin, 6-O-methylerythromycinA], the “Stability Studies: change / Degradation of Clarithromycin” value (shortened to “Stability Studies: change / Degradation”) in data set [1] (40° C. and 75% RH-2 Months) is recorded as “No Change/No”; in data set [1] (40° C. and 75% RH-3 Months) it was “No Change/No”; in data set [1] (40° C. and 75% RH-4 Months), “No Change/No”; in data set [1] (40° C. and 75% RH-5 Months), “No Change/No”; in data set [1] (60° C.-1 month) it was “No Change/No”; in data set [1] (60° C.-2 months), “No Change/No”. Besides, the “Stability Studies: change / Degradation” value in data set [1] (60° C.-3 months), in data set [1] (85° C.-1 day), in data set [1] (85° C.-4 days), in data set [1] (85° C.-7 days), in data set [1] (85°-15 days) and in data set [1] (RT-3 Months) was “No Change/No” in each case. Moreover, the “Stability Studies: change / Degradation” value in data set [1] (RT-6 Months), in data set [1] (RT-9 Months) and in data set [1] (RT-12 Months) was “No Change/No” throughout. Also, the “pH solubility studies (mg of Clarithromycin dissolved per ml of buffer)” value in data set [2] (pH 3.0 (KCl Buffer)) is reported as 2.00 mg/ml; in data set [2] (pH 4.0 (KCl Buffer)) it was 0.33 mg/ml; in data set [2] (pH 5.0 (Phosphate Buffer)), 10.09 mg/ml; in data set [2] (pH 6.0 (Phosphate Buffer)), 7.46 mg/ml; in data set [2] (pH 7.0 (Phosphate Buffer)), 2.00 mg/ml. The “pH of 0.2% suspension in water: methanol (19:1)” value in data set [3] is recorded as 7.5 to 10.0.
